Experimental data reported in patent US11298367B2, “Prodrugs of substituted triazole derivatives and uses thereof” (Bayer Aktiengesellschaft, priority 2017, dated 2022).
Where two headings read alike, the source gives them in different places.

Tests used:
[1] = system: human platelets; assay: Inhibition of vasopressin induced aggregation of human platelets; assay type: cell-based; details: human platelet rich plasma, AVP 100 nM
Description: B-5. Inhibition of Vasopressin Induced Aggregation of Human Platelets for Verification of Prodrug Conversion into Drug
Human platelets endogenously express the V1a receptor. […] Therefore, platelets enriched from human blood may serve as a V1a expressing tissue for pharmacological studies with vasopressin antagonists.
To verify the conversion of prodrugs into the respective drugs, the prodrugs are incubated with and without alkaline phosphatase. Cleavage of the phosphate moiety by alkaline phosphatase converts the prodrug into the drug. As prodrug and underlying respective drug show different IC50 values, the value of the prodrug after alkaline phosphatase treatment resembles the IC50 of the respective drug.
100 μl of test compound at a concentration of 100 μM are incubated for 15 min with 500 units alkaline phosphatase at 37° C. in modified Tyrode buffer (134 mM NaCl, […], 0.34 mM NaH2PO4*H2O, 2.9 mM KCl, 5 mM HEPES, 5 mM Glucose) and stored at 4° C. until further use in the platelet aggregation assay.
Platelet-rich plasma (PRP) is obtained by centrifugation of the blood sample at 140 g for 20 min at room temperature. The resulting pellet is discarded and the PRP further centrifuged (11.000 rpm, 1 min) to produce platelet-poor plasma (PPP). Platelet aggregation is measured turbidimetrically using an aggregometer (APACT 4). The reaction is followed by monitoring changes in light transmission on 178 μL PRP aliquots, under continuous stirring at 37° C., against PPP control. Various concentrations of vasopressin antagonists (in 2 μL) are added to PRP 5 min before the addition of 20 μL AVP (final concentration 100 nM). The inhibitory effects of the compounds are determined by measuring the maximal amplitude of the aggregation curve compared with the control response. IC50 values are calculated on the basis of a concentration-response inhibition curve by an iterative nonlinear regression program. All values are expressed as mean values (Table 3A).

[2] = target: T1, vasopressin V2 receptor (Rattus norvegicus, UniProt Q00788); assay: Diuresis investigations in conscious rats kept in metabolism cages; assay type: in vivo; details: Wistar rats, i.v., solvent control = 100%
T1 construct: from tissue; host or cells: whole animal (conscious Wistar rats; renal V2 receptors)
T1 sequence (Q00788 whole entry): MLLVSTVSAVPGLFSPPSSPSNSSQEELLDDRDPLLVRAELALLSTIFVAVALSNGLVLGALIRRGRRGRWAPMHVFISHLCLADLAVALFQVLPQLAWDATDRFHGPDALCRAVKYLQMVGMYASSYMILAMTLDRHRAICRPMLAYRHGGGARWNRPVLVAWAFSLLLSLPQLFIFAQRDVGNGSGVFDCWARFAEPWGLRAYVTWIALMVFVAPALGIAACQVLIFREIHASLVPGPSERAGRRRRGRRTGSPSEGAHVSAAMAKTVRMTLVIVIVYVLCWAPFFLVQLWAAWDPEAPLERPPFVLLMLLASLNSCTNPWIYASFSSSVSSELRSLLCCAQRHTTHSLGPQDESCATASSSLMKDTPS
Description: B-8. In Vivo Assay for Detecting Vasopressin V2 Receptor-Meidated Effects: Diuresis Investigations in Conscious Rats Kept in Metabolism Cages
Wistar rats (400-500 g body weight) are kept with free access to feed (Altromin) and drinking water. During the experiment, the animals are kept with free access to drinking water for 7 hours individually in metabolism cages suitable for rats of this weight class (Tecniplast Deutschland GmbH, D-82383 Hohenpeißenberg). At the beginning of the experiment, the animals are administered the test substance in a volume of 1 ml/kg body weight of a suitable solvent (2-Hydroxylpropyl-beta-cyclodextrin) by intravenous application. Control animals only receive solvent. Controls and substance tests are carried out in parallel on the same day. Control groups and substance-dose groups each consist of 6 to 8 animals. During the experiment, the urine excreted by the animals is collected continuously in a receiver at the base of the cage. The volume of urine is determined separately for each animal. Before the beginning of the experiment, the body weight of the individual animals is determined.
Following intravenous administration, in comparison with the solvent control applications, a vasopressin V2 receptor blocking compound would bring about an increased excretion of urine, which is based essentially on an increased excretion of water (aquaresis).

[3] = with alkaline phosphatase, read-out: IC50 with AP
[4] = without alkaline phosphatase, read-out: IC50 without AP

Row | Compound | IC50 [1, 3] [nM] | IC50 [1, 4] [nM] | Urinary volume ([2]; dosage 0.3 mg/kg) [% vs. control] | Urinary volume ([2]; dosage 1.0 mg/kg) [% vs. control] | Urinary volume ([2]; dosage 3.0 mg/kg) [% vs. control]
1 | NC(=O)c1nc(Cn2nc(-c3ccc(Cl)cc3)n(C[C@H](OP(=O)(O)O)C(F)(F)F)c2=O)nn1-c1ncccc1C(F)(F)F [Example 1, (2S)-3-[1-({5-Carbamoyl-1-[3-(trifluoromethyl)pyridin-2-yl]-1H-1,2,4-triazol-3-yl}methyl)-3-(4-chlorophenyl)-5-oxo-1,5-dihydro-4H-1,2,4-triazol-4-yl]-1,1,1-trifluoropropan-2-yl Dihydrogen Phosphate] | 12.7 | 145 | 127 | 117 | 108
2 | NC(=O)c1nc(Cn2nc(-c3ccc(Cl)cc3)n(C[C@H](O)C(F)(F)F)c2=O)nn1-c1ncccc1C(F)(F)F [Example 4A, 3-({3-(4-Chlorophenyl)-5-oxo-4-[(2S)-3,3,3-trifluoro-2-hydroxypropyl]-4,5-dihydro-1H-1,2,4-triazol-1-yl}methyl)-1-[3-(trifluoromethyl)pyridin-2-yl]-1H-1,2,4-triazole-5-carboxamide] | 10.2 | 21.1 | 95 | 154 | 134
